According to US11389415B2, “Methods of regulating cannabinoid receptor activity-related disorders and diseases” (The United States of America as represented by the …, priority 2012, dated 2022):
“Also recorded” adds a separate entry of the source. Read-outs that look alike come from different tables or passages of the source.

What was measured:
HepG2 cells [1] = assay: Cell cycle analysis by flow cytometry in HepG2 cells; format: cell-based, human; details: HepG2, 1 μM, up to 24 hours
Method: Cell Cycle Analysis. Cell cycle distributions were performed by flow cytometry on propidium iodide-stained nuclei prepared by the NIM technique. DNA histograms of at least 10,000 cells acquired on a Becton-Dickinson FACScanto II (BD Biosciences, San Jose, Calif.) were deconvoluted using the Multicycle program (Phoenix Flow Systems) for estimates of the percentage of cells in the G0/1, S, and G2+M phases of the cell cycle. Debris and doublets were removed from the analysis by software algorithms.

Akt and ERK1/2 = assay: phosphorylation of Akt and ERK1/2 in HepG2 cells (Western blot); format: cell-based, human; details: 1 μM, 5, 10 and 30 minutes
Method: Western Blotting. Cells were lysed with RIPA buffer containing EGTA and EDTA (Boston BioProducts, Ashland, Mass.). The lysis buffer was mixed with a protease inhibitor cocktail (Sigma-Aldrich). Protein concentrations were measured using the bicinchoninic acid reagent (Thermo-Pierce Biotechnology, Inc., Rockford, Ill.). […] Western blots were performed according to standard methods. The visualization of immunoreactive bands was performed using the ECL Plus Western Blotting Detection System (GE Healthcare, NJ) and their quantification was done by volume densitometry using Image J software and normalization to β-actin. […] The antibodies were used at a dilution recommended by the manufacturer.

U87MG cells = assay: [3H]-Thymidine incorporation in U87MG cells; format: cell-based, human; details: compound alone
Method: (§1) Maintenance and Treatment of Cell Lines. Human HepG2 hepatocarcinoma cells and human U87MG glioma cells (ATCC, Manassas, Va.) were maintained in EMEM medium supplemented with 1% L-glutamine, 1% sodium pyruvate, 1% penicillin/streptomycin, and 10% FBS (Hyclone, Logan, Utah). The human 1321N1 astrocytoma cells (European Collection of Cell Cultures, Sigma-Aldrich) were cultured in Dulbecco's modified Eagle's medium supplemented with 10% FBS and penicillin/streptomycin. All cell lines were cultured at 37° C. in 5% CO2, and the medium was replaced every 2-3 days.
(§2) Cells were seeded in 12-well plates at approximately 50,000 cells/well and incubated at 37° C. After 24 hours, the wells were rinsed with PBS and replaced with serum-free medium containing the appropriate concentration of the test compounds. After another 24-hour incubation at 37° C., 1 μCi of [^3H]-thymidine was added to each well and incubated at 37° C. for 16 hours. [^3H]-Thymidine incorporation into DNA was monitored after the cells were washed twice with PBS and then lysed in 600 μL of 0.1N NaOH for 30 minutes with shaking. The lysate was then mixed with 3 mL of liquid scintillation cocktail (Beckman Coulter, Inc., Brea, Calif.), and radioactivity was measured by liquid scintillation counting using Beckman Coulter LS6000IC Scintillation Counter. Data are shown as CPM incorporated compared to the control cells.

HepG2 cells [2] = assay: [3H]-Thymidine incorporation assay in HepG2 cells; format: cell-based, human
Method: as §1, §2

HepG2 cells [3] = assay: Apoptosis assay (annexin V/PI flow cytometry) in HepG2 cells; format: cell-based, human; details: HepG2, 1 μM, 24 hours
Method: Apoptosis Assay. The degree of apoptosis induced by drug treatment was assayed by flow cytometry using the Alexa Fluor® 488 annexin V/Dead Cell Apoptosis Kit (Invitrogen) following the standard manufacturer's protocol. […] Cells were subsequently harvested after a 24-hour incubation, washed in cold PBS, and resuspended in 100 μL of 1× annexin-binding buffer to maintain a density˜1×10^6 cells/mL, after which 5 μL Alexa Fluor® 488 annexin V and 1 μL 100 μg/mL propidium iodide were added to the cell suspensions. Cells were then incubated at room temperature for 15 minutes and 400 μL 1× annexin-binding buffer was added followed by gentle mixing. Stained cells were analyzed on a BDFACSCanto II flow cytometer.

HepG2 cells [4] = assay: cAMP accumulation in HepG2 cells; format: cell-based, human; details: β-agonists at 10 μM
Method: cAMP Accumulation. HepG2 cells were seeded in 96-well plates and grown to confluency. […] The levels of cAMP accumulated in cells were determined and normalized to the amount of protein per well.

1321N1 cells = assay: Mitogenesis / [3H]-thymidine incorporation in 1321N1 cells; format: cell-based, human; details: compound alone
Method: as §1
as §2, with “[^3H]-Thymidine Incorporation Assay. Cells” for “Cells”

U118 = assay: tumor cell growth, U118; details: read-out: IC50 (uM), U118 (CNS); Table 6
HT29 [5] = assay: Thymidine (Thy) 96 well, HT29; details: read-out: IC50 (uM), HT29 (Colon Cancer)
PC3 [6] = assay: [3H]-Thymidine incorporation in 96-well plates (Thy), PC3; details: read-out: IC50 (uM), PC3 (Prostrate Cancer)
CAPAN = assay: tumor cell growth, CAPAN; details: Table 6
MCF7 = assay: tumor cell growth, MCF7; details: Table 6
MDAMB231 = assay: tumor cell growth, MDAMB231; details: Table 6
NCIH460 = assay: Thymidine (Thy) 96 well, NCIH460; details: read-out: IC50 (uM), NCIH460 (NSCLC)
HCT116 [7] = assay: tumor cell growth (CTG), HCT116
LN229 = assay: [3H]-Thymidine incorporation in 96-well plates (Thy), LN229; details: read-out: IC50 (uM), LN229 (CNS Cancer)
Du-145 = assay: tumor cell growth, Du-145; details: read-out: IC50 (uM), Du-145 (Prostate C); Table 6
GL261 = assay: tumor cell growth, GL261; details: Table 6
HT29 [8] = assay: tumor cell growth (CTG), HT29
U87 = assay: tumor cell growth, U87; details: Table 6
LN-18 = assay: tumor cell growth, LN-18; details: Table 6
U251 = assay: tumor cell growth, U251; details: Table 6
HEPG2 = assay: tumor cell growth, HEPG2; details: Table 6
HCT116 [9] = assay: Thymidine (Thy) 96 well, HCT116; details: read-out: IC50 (uM), HCT116 (Colon Cancer)
A549 = assay: tumor cell growth, A549; details: read-out: IC50 (uM), A549 (NSCLC); Table 6
A172 = assay: tumor cell growth, A172; details: Table 6
PC3 [10] = assay: tumor cell growth (CTG), PC3
H460 = assay: tumor cell growth (CTG), H460 / NCIH460
HEP3B [11] = assay: tumor cell growth (CTG), HEP3B
HEP3B [12] = assay: [3H]-Thymidine incorporation in 96-well plates (Thy), HEP3B; details: read-out: IC50 (uM), HEP3B (Liver Cancer)
PANC-1 = assay: tumor cell growth, PANC-1; details: Table 6
LN-229 = assay: tumor cell growth (CTG), LN-229 / LN229

SMILES: C[C@H](Cc1ccc(O)cc1)NC[C@H](O)c1cc(O)cc(O)c1 [(R,R′)-Fen, (R,R′)-Fenoterol]
- cell cycle / sub-G1 events (HepG2 cells [1]): no significant alterations of the cell cycle; also recorded: No significant increase in sub-G1 events
- Akt and ERK activation (Akt and ERK1/2): induced a time-dependent increase in Akt and ERK activation
- effect on cellular proliferation (U87MG cells): had no effect
- % Change in HepG2 cells ([3H]-thymidine incorporation) (HepG2 cells [2]; 1 μM, 24 h): 51.3%
- EC50 (HepG2 cells [2]; Homo sapiens, HepG2, read-out: IC50/EC50 (μM): EC50 (ED50) for increase in [3H]-thymidine incorporation): 1.17 ± 0.37 µM
- apoptosis compared to control (HepG2 cells [3]): markedly reduced apoptosis
- cAMP production (HepG2 cells [4]): Neither (R)-isoproterenol nor (R,R′)-Fen, at 10 μM, elicited an increase in cAMP production
- effect on proliferation / [3H]-thymidine incorporation (1321N1 cells): reduced proliferation in 1321N1 cells

SMILES: COc1ccc(C[C@@H](C)NC[C@H](O)c2cc(O)cc(O)c2)cc1 [RR-MF, (R,R′)-4-methoxyfenoterol]
- IC50 (U118): > 50 µM
- IC50 (HT29 [5]; 96 well Thy 2 days treatment): > 50 µM
- IC50 (HT29 [5]; 96 well Tye 1 day treatment): > 50 µM
- IC50 (PC3 [6]; 96 well Thy 2 days treatment): > 50 µM
- IC50 (PC3 [6]; 96 well Tye 1 day treatment): > 50 µM
- IC50 (uM), CAPAN (Pancreatic C) (CAPAN): N.E.
- IC50 (uM), MCF7 (Breast C) (MCF7): N.E.
- IC50 (uM), MDAMB231 (Breast C) (MDAMB231): N.E.
- IC50 (NCIH460; 96 well Thy 2 days treatment): > 50 µM
- IC50 (NCIH460; 96 well Tye 1 day treatment): > 50 µM
- IC50 (HCT116 [7]; read-out: IC50 (uM), HCT116 (Colon C), Table 6): > 50 µM
- IC50 (HCT116 [7]; read-out: IC50 (uM), HCT116 (Colon Cancer), 96 well CTG 1 day treatment): > 50 µM
- IC50 (HCT116 [7]; read-out: IC50 (uM), HCT116 (Colon Cancer), 96 well CTG 2 days treatment): > 50 µM
- IC50 (HCT116 [7]; read-out: IC50 (uM), HCT116 (Colon Cancer), 384well CTG 3 days treatment −1): > 50 µM
- IC50 (HCT116 [7]; read-out: IC50 (uM), HCT116 (Colon Cancer), 384well CTG 3 days treatment −2): > 50 µM
- IC50 (LN229; 96 well Thy 2 days treatment): > 50 µM
- IC50 (LN229; 96 well Tye 1 day treatment): > 50 µM
- IC50 (Du-145): > 50 µM
- IC50 (uM), GL261 (CNS) (GL261): N.E.?
- IC50 (HT29 [8]; read-out: IC50 (uM), HT29 (Colon C), Table 6): > 50 µM
- IC50 (HT29 [8]; read-out: IC50 (uM), HT29 (Colon Cancer), 96 well CTG 1 day treatment): > 50 µM
- IC50 (HT29 [8]; read-out: IC50 (uM), HT29 (Colon Cancer), 96 well CTG 2 days treatment): > 50 µM
- IC50 (HT29 [8]; read-out: IC50 (uM), HT29 (Colon Cancer), 384well CTG 3 days treatment −1): > 50 µM
- IC50 (uM), U87 (CNS) (U87): N.E.
- IC50 (uM), LN-18 (CNS) (LN-18): N.E.?
- IC50 (uM), U251 (CNS) (U251): N.E.
- IC50 (uM), HEPG2 (Liver C) (HEPG2): N.E.
- IC50 (HCT116 [9]; 96 well Thy 2 days treatment): > 50 µM
- IC50 (HCT116 [9]; 96 well Tye 1 day treatment): > 50 µM
- IC50 (A549): > 50 µM
- IC50 (uM), A172 (CNS) (A172): N.E.?
- IC50 (PC3 [10]; read-out: IC50 (uM), PC3 (Prostate C), Table 6): > 50 µM
- IC50 (PC3 [10]; read-out: IC50 (uM), PC3 (Prostrate Cancer), 96 well CTG 1 day treatment): > 50 µM
- IC50 (PC3 [10]; read-out: IC50 (uM), PC3 (Prostrate Cancer), 96 well CTG 2 days treatment): > 50 µM
- IC50 (PC3 [10]; read-out: IC50 (uM), PC3 (Prostrate Cancer), 384well CTG 3 days treatment −1): > 50 µM
- IC50 (H460; read-out: IC50 (uM), H460 (NSCLC), Table 6): > 50 µM
- IC50 (H460; read-out: IC50 (uM), NCIH460 (NSCLC), 96 well CTG 1 day treatment): > 50 µM
- IC50 (H460; read-out: IC50 (uM), NCIH460 (NSCLC), 96 well CTG 2 days treatment): > 50 µM
- IC50 (H460; read-out: IC50 (uM), NCIH460 (NSCLC), 384well CTG 3 days treatment −1): > 50 µM
- IC50 (H460; read-out: IC50 (uM), NCIH460 (NSCLC), 384well CTG 3 days treatment −2): > 50 µM
- IC50 (HEP3B [11]; read-out: IC50 (uM), HEP3B (Liver C), Table 6): > 50 µM
- IC50 (HEP3B [11]; read-out: IC50 (uM), HEP3B (Liver Cancer), 96 well CTG 1 day treatment): > 50 µM
- IC50 (HEP3B [11]; read-out: IC50 (uM), HEP3B (Liver Cancer), 96 well CTG 2 days treatment): > 50 µM
- IC50 (HEP3B [11]; read-out: IC50 (uM), HEP3B (Liver Cancer), 384well CTG 3 days treatment −1): > 50 µM
- IC50 (HEP3B [11]; read-out: IC50 (uM), HEP3B (Liver Cancer), 384well CTG 3 days treatment −2): > 50 µM
- IC50 (HEP3B [12]; 96 well Thy 2 days treatment): 2.35 µM
- IC50 (HEP3B [12]; 96 well Tye 1 day treatment): 2.4 µM
- IC50 (uM), PANC-1 (Pancreatic C) (PANC-1): N.E.
- IC50 (LN-229; read-out: IC50 (uM), LN229 (CNS Cancer), 96 well CTG 1 day treatment): > 50 µM
- IC50 (LN-229; read-out: IC50 (uM), LN229 (CNS Cancer), 96 well CTG 2 days treatment): > 50 µM
- IC50 (LN-229; read-out: IC50 (uM), LN229 (CNS Cancer), 384well CTG 3 days treatment −1): > 50 µM
- IC50 (LN-229; read-out: IC50 (uM), LN-229 (CNS), Table 6): > 50 µM
